Data published in PubChem BioAssay (NCI).
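Five concentrations, 48 hours, 96-well plates. TGI: total growth inhibition.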

Experiments:
Assay in all cases: NCI anticancer screen, dose series, 48 h
DU-145 prostate = tested on: DU-145 prostate
NCI/ADR-RES ovarian = tested on: NCI/ADR-RES ovarian
RPMI-8226 leukemia = tested on: RPMI-8226 leukemia
SF-295 CNS = tested on: SF-295 CNS
IGROV1 ovarian = tested on: IGROV1 ovarian
OVCAR-3 ovarian = tested on: OVCAR-3 ovarian
SK-MEL-5 melanoma = tested on: SK-MEL-5 melanoma
NCI-H23 lung = tested on: NCI-H23 lung
HOP-92 NSCLC = tested on: HOP-92 NSCLC
OVCAR-5 ovarian = tested on: OVCAR-5 ovarian
CAKI-1 renal = tested on: CAKI-1 renal
SF-268 CNS = tested on: SF-268 CNS
HCT-116 colon = tested on: HCT-116 colon
OVCAR-4 ovarian = tested on: OVCAR-4 ovarian
K-562 leukemia = tested on: K-562 leukemia
UACC-257 melanoma = tested on: UACC-257 melanoma
CCRF-CEM leukemia = tested on: CCRF-CEM leukemia
SK-MEL-28 melanoma = tested on: SK-MEL-28 melanoma
SR leukemia = tested on: SR leukemia
NCI-H226 lung = tested on: NCI-H226 lung
M14 melanoma = tested on: M14 melanoma
SNB-19 CNS = tested on: SNB-19 CNS
A549 NSCLC = tested on: A549 NSCLC
HOP-62 NSCLC = tested on: HOP-62 NSCLC
U251 CNS = tested on: U251 CNS
HCC-2998 colon = tested on: HCC-2998 colon
MDA-MB-231 breast = tested on: MDA-MB-231 breast
OVCAR-8 ovarian = tested on: OVCAR-8 ovarian
SK-OV-3 ovarian = tested on: SK-OV-3 ovarian
KM12 colon = tested on: KM12 colon
NCI-H522 lung = tested on: NCI-H522 lung
HCT-15 colon = tested on: HCT-15 colon
UACC-62 melanoma = tested on: UACC-62 melanoma
UO-31 renal = tested on: UO-31 renal
MALME-3M melanoma = tested on: MALME-3M melanoma
BT-549 breast = tested on: BT-549 breast
RXF 393 renal = tested on: RXF 393 renal
SF-539 CNS = tested on: SF-539 CNS
ACHN renal = tested on: ACHN renal
PC-3 prostate = tested on: PC-3 prostate
LOX IMVI melanoma = tested on: LOX IMVI melanoma
COLO 205 colon = tested on: COLO 205 colon
SN12C renal = tested on: SN12C renal
SNB-75 CNS = tested on: SNB-75 CNS
MOLT-4 leukemia = tested on: MOLT-4 leukemia
HS 578T breast = tested on: HS 578T breast
786-0 renal = tested on: 786-0 renal
TK-10 renal = tested on: TK-10 renal
T-47D breast = tested on: T-47D breast
MDA-MB-435 = tested on: MDA-MB-435
SW-620 colon = tested on: SW-620 colon
EKVX NSCLC = tested on: EKVX NSCLC
SK-MEL-2 melanoma = tested on: SK-MEL-2 melanoma
MDA-N = tested on: MDA-N
A498 renal = tested on: A498 renal
HL-60(TB) leukemia = tested on: HL-60(TB) leukemia
NCI-H460 lung = tested on: NCI-H460 lung
MCF7 breast = tested on: MCF7 breast
HT29 colon = tested on: HT29 colon

CCOC(=O)NC(Nc1ccc(F)c(F)c1)(C(=O)OCC)C(F)(F)F (centres undefined)
TGI (DU-145 prostate): > 100 µM | TGI (NCI/ADR-RES ovarian): > 100 µM | TGI (RPMI-8226 leukemia): > 100 µM | TGI (SF-295 CNS): > 100 µM | TGI (IGROV1 ovarian): > 100 µM | TGI (OVCAR-3 ovarian): > 100 µM | TGI (SK-MEL-5 melanoma): > 100 µM | TGI (NCI-H23 lung): > 100 µM | TGI (HOP-92 NSCLC): > 100 µM | TGI (OVCAR-5 ovarian): > 100 µM | TGI (CAKI-1 renal): > 100 µM | TGI (SF-268 CNS): > 100 µM | TGI (HCT-116 colon): > 100 µM | TGI (OVCAR-4 ovarian): > 100 µM | TGI (K-562 leukemia): > 100 µM | TGI (UACC-257 melanoma): > 100 µM | TGI (CCRF-CEM leukemia): > 100 µM | TGI (SK-MEL-28 melanoma): > 100 µM | TGI (SR leukemia): > 100 µM | TGI (NCI-H226 lung): > 100 µM | TGI (M14 melanoma): > 100 µM | TGI (SNB-19 CNS): > 100 µM | TGI (A549 NSCLC): > 100 µM | TGI (HOP-62 NSCLC): > 100 µM | TGI (U251 CNS): > 100 µM | TGI (HCC-2998 colon): > 100 µM | TGI (MDA-MB-231 breast): > 100 µM | TGI (OVCAR-8 ovarian): > 100 µM | TGI (SK-OV-3 ovarian): > 100 µM | TGI (KM12 colon): > 100 µM | TGI (NCI-H522 lung): > 100 µM | TGI (HCT-15 colon): > 100 µM | TGI (UACC-62 melanoma): > 100 µM | TGI (UO-31 renal): > 100 µM | TGI (MALME-3M melanoma): > 100 µM | TGI (BT-549 breast): > 100 µM | TGI (RXF 393 renal): > 100 µM | TGI (SF-539 CNS): > 100 µM | TGI (ACHN renal): > 100 µM | TGI (PC-3 prostate): > 100 µM | TGI (LOX IMVI melanoma): > 100 µM | TGI (COLO 205 colon): > 100 µM | TGI (SN12C renal): > 100 µM | TGI (SNB-75 CNS): > 100 µM | TGI (MOLT-4 leukemia): > 100 µM | TGI (HS 578T breast): > 100 µM | TGI (786-0 renal): > 100 µM | TGI (TK-10 renal): > 100 µM | TGI (T-47D breast): > 100 µM | TGI (MDA-MB-435): > 100 µM | TGI (SW-620 colon): > 100 µM | TGI (EKVX NSCLC): > 100 µM | TGI (SK-MEL-2 melanoma): > 86.5 µM | TGI (MDA-N): > 100 µM | TGI (A498 renal): > 100 µM | TGI (HL-60(TB) leukemia): > 100 µM | TGI (NCI-H460 lung): > 100 µM | TGI (MCF7 breast): > 100 µM | TGI (HT29 colon): > 100 µM
